Target: T1, Full-length glucokinase (beta cell isoform) (Homo sapiens, UniProt P35557)
T1 construct: Full-length glucokinase (beta cell isoform) was His-tagged at N-terminus; His tag (N); made in house
T1 sequence (P35557 1-465): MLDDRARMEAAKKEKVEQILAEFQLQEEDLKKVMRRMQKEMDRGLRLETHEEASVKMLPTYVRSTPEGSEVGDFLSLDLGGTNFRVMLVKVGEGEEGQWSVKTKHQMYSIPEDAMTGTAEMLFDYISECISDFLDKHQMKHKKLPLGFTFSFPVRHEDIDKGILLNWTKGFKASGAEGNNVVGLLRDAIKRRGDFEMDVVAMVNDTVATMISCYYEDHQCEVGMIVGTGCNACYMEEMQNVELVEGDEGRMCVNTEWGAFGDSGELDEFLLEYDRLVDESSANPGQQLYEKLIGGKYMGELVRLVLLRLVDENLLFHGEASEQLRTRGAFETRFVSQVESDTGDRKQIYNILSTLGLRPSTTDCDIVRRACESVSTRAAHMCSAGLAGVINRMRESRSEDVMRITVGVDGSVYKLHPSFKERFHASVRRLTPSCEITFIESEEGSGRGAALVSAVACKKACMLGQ
Assay: Glucokinase biochemical assay (PK/LDH-coupled, NADH depletion at 340 nm): % activation, EC50, % max activation
Settings: 5 mM glucose; for activation at 10 µM / % Activation at 10 uM: 10 uM compound, % Activation=(Va/Vo−1)×100; for activation at 10 µM: read-out: % Activation at 10 uM; for EC50: GK activation, read-out: EC50; for Emax / % Max Activation: fitted maximum activation; for Emax: read-out: % Max Activation
Method in brief: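 Activation expressed as (Va/Vo−1)×100, where initial rates with and without compound come from NADH depletion at 340 nm over 200–900 s. Enzyme is His-tagged human beta-cell GK, full length, run at room temperature in HEPES buffer with 1 mM ATP and 5 mM glucose. DMSO 1%.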

| activation at 10 µM | EC50 | Emax | % Activation at 10 uM | % Max Activation | Structure (SMILES) |
| --- | --- | --- | --- | --- | --- |
| 141% | 430 nM | 169% |  |  | Cn1ccc(NC(=O)c2cc(Oc3ccc(S(C)(=O)=O)cc3)c3c(c2)OC(C)(CF)C3)n1 (stereo not drawn) [Example 251, 2-Fluoromethyl-4-(4-methanesulfonyl-phenoxy)-2-methyl-2,3-dihydro-benzofuran-6-carboxylic acid (1-methyl-1H-pyrazol-3-yl)-amide] |
| 137% | > 10000 nM |  |  |  | Cc1cc2c(OC3CN(S(C)(=O)=O)C3)cc(C(=O)Nc3cnn(C)n3)cc2o1 [Example 325, 2-Methyl-4-{[1-(methylsulfonyl)azetidin-3-yl]oxy}-N-(2-methyl-2H-1,2,3-triazol-4-yl)-1-benzofuran-6-carboxamide] |
| 108% | 778 nM | 107% |  |  | Cc1ccc(NC(=O)c2cc(Oc3ccc(S(C)(=O)=O)cc3)c3cc(C)oc3c2)nc1 [Example 252, 2-Methyl-N-(5-methylpyridin-2-yl)-4-(4-(methylsulfonyl)-phenoxy)-benzofuran-6-carboxamide] |
| 98.2% | 7100 nM | 139% |  |  | CCOc1ccc(NC(=O)c2cc(Oc3ccc(S(C)(=O)=O)cc3)c3cc(C)oc3c2)nc1 [Example 270, N-(5-ethoxypyridin-2-yl)-2-methyl-4-(4-(methylsulfonyl)-phenoxy)benzofuran-6-carboxamide] |
| 254% | 390 nM | 232% |  |  | Cn1ccc(NC(=O)c2cc(Oc3ccc(C(=O)NC4CC4)c(F)c3)c3c(c2)OC(C)(C)C3)n1 [Example 73, 4-(4-Cyclopropylcarbamoyl-3-fluoro-phenoxy)-2,2-dimethyl-2,3-dihydro-benzofuran-6-carboxylic acid(1-methyl-1H-pyrazol-3-yl)-amide] |
| 194% | 450 nM | 203% |  |  | CNC(=O)c1ncc(Oc2cc(C(=O)Nc3ccn(C)n3)cc3c2CC(C)(C)O3)cc1F [Example 176, 5-[2,2-Dimethyl-6-(1-methyl-1H-pyrazol-3-ylcarbamoyl)-2,3-dihydro-benzofuran-4-yloxy]-3-fluoro-pyridine-2-carboxylic acid methylamide] |
| 75.6% | 4000 nM | 116% |  |  | Cc1ccc(NC(=O)c2cc(OC(C)C)cc3oc(Br)cc23)nc1 [Example 345, 2-Bromo-6-isopropoxy-N-(5-methylpyridin-2-yl)benzofuran-4-carboxamide] |
| 25.9% |  |  |  |  | Cc1cc2c(Oc3ccc(C(=O)N(C)C)c(F)c3)cc(C(=O)Nc3ccn(C)n3)cc2s1 [Example 362, 4-(4-(Dimethylcarbamoyl)-3-fluorophenoxy)-2-methyl-N-(1-methyl-1H-pyrazol-3-yl)benzo[b]thiophene-6-carboxamide] |
| 298% | 130 nM | 250% |  |  | Cn1ncc(NC(=O)c2cc(Oc3ccc(C(=O)N4CCC4)cc3)c3c(c2)OC(C)(C)C3)n1 [Example 160, 4-[4-(Azetidine-1-carbonyl)-phenoxy]-2,2-dimethyl-2,3-dihydro-benzofuran-6-carboxylic acid (2-methyl-2H-[1,2,3]triazol-4-yl)-amide] |
| 151% | 780 nM | 137% |  |  | Cc1cc2c(Oc3ccc(S(C)(=O)=O)cc3)cc(C(=O)Nc3cnc(N(C)C)cn3)cc2o1 [Example 262, N-(5-(Dimethylamino)pyrazin-2-yl)-2-methyl-4-(4-(methylsulfonyl)-phenoxy)-benzofuran-6-carboxamide] |
|  | 270 nM |  | 91.3% | 102% | COCC1Cc2c(Oc3ccc(C(=O)N(C)C)c(F)c3)cc(C(=O)Nc3ccn(C)n3)cc2O1 (single isomer, unassigned; (-)) [Example 206, (−)-4-(4-Dimethylcarbamoyl-3-fluoro-phenoxy)-2-methoxymethyl-2,3-dihydro-benzofuran-6-carboxylic acid (1-methyl-1H-pyrazol-3-yl)-amide] |
| 109% | 2400 nM | 149% |  |  | Cn1ccc(NC(=O)c2cc(Oc3ccc(C(F)F)cc3)c3c(c2)OC(C)(C)C3)n1 [Example 38, 4-(4-Difluoromethyl-phenoxy)-2,2-dimethyl-2,3-dihydro-benzofuran-6-carboxylic acid(1-methyl-1H-pyrazol-3-yl)-amide] |
| 48.2% | > 10000 nM |  |  |  | Cc1nc2cc(C(=O)Nc3ccn(C)n3)cc(Oc3ccc(S(C)(=O)=O)cc3)c2o1 [Example 368, 2-Methyl-N-(1-methyl-1H-pyrazol-3-yl)-7-[4-(methylsulfonyl)-phenoxy]-1,3-benzoxazole-5-carboxamide] |
|  | 420 nM |  | 227% | 246% | COCC1(C)Cc2c(Oc3ccc(S(=O)(=O)C4CC4)cc3)cc(C(=O)Nc3cnn(C)n3)cc2O1 (single isomer, unassigned; (+)) [Example 250, (+)-4-(4-Cyclopropanesulfonyl-phenoxy)-2-methoxymethyl-2-methyl-2,3-dihydro-benzofuran-6-carboxylic acid (2-methyl-2H-[1,2,3]triazol-4-yl)-amide] |

Continued, compound first:

| Structure (SMILES) | activation at 10 µM | EC50 | Emax | % Activation at 10 uM | % Max Activation |
| --- | --- | --- | --- | --- | --- |
| CC1(C)Cc2c(Oc3ccc(S(C)(=O)=O)cc3)cc(C(=O)Nc3nnc(C4CC4)s3)cc2O1 [Example 28, 4-(4-Methanesulfonyl-phenoxy)-2,2-dimethyl-2,3-dihydro-benzofuran-6-carboxylic acid(5-cyclopropyl-[1,3,4]thiadiazol-2-yl)-amide] | 123% | 2000 nM | 158% |  |  |
| Cc1ccc(NC(=O)c2cc(Oc3ccc(S(C)(=O)=O)cc3)c3c(c2)OC(C)(C)C3)nn1 [Example 21, 4-(4-Methanesulfonyl-phenoxy)-2,2-dimethyl-2,3-dihydro-benzofuran-6-carboxylic acid (6-methyl-pyridazin-3-yl)-amide] | 97.9% | 3900 nM | 127% |  |  |
| COCC1Cc2c(OC(C)C)cc(C(=O)Nc3ccn(C)n3)cc2O1 (stereo not drawn) [Example 216, 4-Isopropoxy-2-methoxymethyl-2,3-dihydro-benzofuran-6-carboxylic acid (1-methyl-1H-pyrazol-3-yl)-amide] | 13% |  |  |  |  |
| Cc1cc2c(Oc3ccc(S(=O)(=O)N4CCC4)cc3)cc(C(=O)Nc3ccccn3)cc2o1 [Example 296, 4-(4-(Azetidin-1-ylsulfonyl)phenoxy)-2-methyl-N-(pyridin-2-yl)benzofuran-6-carboxamide] | 70% | 200 nM | 77% |  |  |
| Cc1ccc(NC(=O)c2cc(Oc3ccc(C(=O)N(C)C)cc3)c3oc(C)cc3c2)nc1 [Example 339, 7-{4-[(Dimethylamino)carbonyl]phenoxy}-2-methyl-N-(5-methylpyridin-2-yl)-1-benzofuran-5-carboxamide] | -0.7% |  |  |  |  |
| Cn1ccc(NC(=O)c2cc(Oc3ccc(C(=O)N4CCC4)c(F)c3)c3c(c2)OC(CO)C3)n1 (stereo not drawn) [Example 202, 4-[4-(Azetidine-1-carbonyl)-3-fluoro-phenoxy]-2-hydroxymethyl-2,3-dihydro-benzofuran-6-carboxylic acid (1-methyl-1H-pyrazol-3-yl)-amide] | 121% | 360 nM | 108% |  |  |
| Cn1ccc(NC(=O)c2cc(OCC(=O)c3ccc(CO)cc3)c3c(c2)OC(C)(C)C3)n1 [Example 97, 4-[2-(4-Hydroxymethyl-phenyl)-2-oxo-ethoxy]-2,2-dimethyl-2,3-dihydro-benzofuran-6-carboxylic acid (1-methyl-1H-pyrazol-3-yl)-amide] | 131% | 3400 nM | 123% |  |  |
| Cn1ccc(NC(=O)c2cc(Oc3ccc(C(=O)N4CCCCC4)c(F)c3)c3c(c2)OC(C)(C)C3)n1 [Example 61, 4-[3-Fluoro-4-(piperidine-1-carbonyl)-phenoxy]-2,2-dimethyl-2,3-dihydro-benzofuran-6-carboxylic acid(1-methyl-1H-pyrazol-3-yl)-amide] | 109% | 100 nM | 107% |  |  |
| Cn1cc(C(=O)COc2cc(C(=O)Nc3ccn(C)n3)cc3c2CC(C)(C)O3)cn1 [Example 105, 2,2-Dimethyl-4-[2-(1-methyl-1H-pyrazol-4-yl)-2-oxo-ethoxy]-2,3-dihydro-benzofuran-6-carboxylic acid (1-methyl-1H-pyrazol-3-yl)-amide] | 70.1% | 9400 nM | 102% |  |  |
| Cn1ccc(NC(=O)c2cc(Oc3ccc(C(=O)N4CCC4)c(F)c3)cc3c2CC(C)(C)O3)n1 [Example 197, 6-[4-(Azetidine-1-carbonyl)-3-fluoro-phenoxy]-2,2-dimethyl-2,3-dihydro-benzofuran-4-carboxylic acid (1-methyl-1H-pyrazol-3-yl)-amide] | 77.6% | > 10000 nM |  |  |  |
| COC(C)CCOc1cc(C(=O)Nc2ccn(C)n2)cc2c1CC(C)(C)O2 (stereo not drawn) [Example 101, 4-(3-Methoxy-butoxy)-2,2-dimethyl-2,3-dihydro-benzofuran-6-carboxylic acid (1-methyl-1H-pyrazol-3-yl)-amide] | 94.7% | 6000 nM | 125% |  |  |

Reference: US8119624B2, “Fused phenyl amido heterocyclic compounds” (Pfizer Inc., priority 2006, dated 2012)
